Drawing on US11912686B2 (Gilead Sciences, Inc., priority 2020, dated 2024), this text covers EC50 for 27 molecules.

human LPAR1, sequence (Q92633 whole entry): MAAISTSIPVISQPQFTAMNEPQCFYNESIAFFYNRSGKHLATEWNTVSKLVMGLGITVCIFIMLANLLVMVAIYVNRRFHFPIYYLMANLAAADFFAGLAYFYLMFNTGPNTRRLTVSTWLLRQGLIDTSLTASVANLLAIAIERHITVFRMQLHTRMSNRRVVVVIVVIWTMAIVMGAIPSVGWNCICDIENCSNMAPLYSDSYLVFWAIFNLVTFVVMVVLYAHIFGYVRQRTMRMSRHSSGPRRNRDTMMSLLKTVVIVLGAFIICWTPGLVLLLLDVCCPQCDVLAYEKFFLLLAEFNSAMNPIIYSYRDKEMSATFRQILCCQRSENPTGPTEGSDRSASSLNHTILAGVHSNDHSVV

The experiment addresses human LPAR1 (Homo sapiens (Human), UniProt Q92633). In words: LPAR1 intracellular calcium mobilization assay (antagonist mode, FLIPR). In kind it is cell-based. Particulars: CHO-K1 EDG2 cells expressing human LPAR1, LPA 18:2 at EC80 (100 nM), test compound 0.5 nM to 10 μM. (In general: Calcium flux is commonly read through the fluorescence of an indicator in the cells.)
For orientation: EC50 means the concentration giving half of the maximal effect. As to `CO[C@]1(C#N)C[C@H](C(=O)Nc2ccc(-c3nnn(C)c3NC(=O)O[C@H](C)c3cccnc3Cl)nc2)C1` [Compound 138, (R)-1-(2-chloropyridin-3-yl)ethyl (4-(5-((1s,3S)-3-cyano-3-methoxycyclobutane-1-carboxamido)pyridin-2-yl)-1-methyl-1H-1,2,3-triazol-5-yl)carbamate], the EC50 amounted to 84.9 nM.
Turning to `C[C@@H](OC(=O)Nc1c(-c2cc(F)c(NC(=O)C34CC(C#N)(C3)C4)cn2)nnn1C)c1cccnc1Cl` [Compound 184, (R)-1-(2-chloropyridin-3-yl)ethyl (4-(5-(3-cyanobicyclo[1.1.1]pentane-1-carboxamido)-4-fluoropyridin-2-yl)-1-methyl-1H-1,2,3-triazol-5-yl)carbamate], the EC50 stood at 81.8 nM.
As to `C[C@@H](OC(=O)Nc1c(-c2ccc(NC(=O)C3(C#N)CC3)cn2)nnn1C)c1cccnc1Cl` [Compound 67, (R)-1-(2-chloropyridin-3-yl)ethyl (4-(5-(1-cyanocyclopropane-1-carboxamido)pyridin-2-yl)-1-methyl-1H-1,2,3-triazol-5-yl)carbamate], the EC50 worked out at 30.8 nM.
Consider `C[C@@H](OC(=O)Nc1c(-c2ccc(NC(=O)c3ccc(Cl)nc3F)cn2)nnn1C)c1cc(F)cnc1F` [Compound 262, (R)-1-(2,5-difluoropyridin-3-yl)ethyl (4-(5-(6-chloro-2-fluoronicotinamido)pyridin-2-yl)-1-methyl-1H-1,2,3-triazol-5-yl)carbamate], for which the EC50 was determined as 23.7 nM.
As to `C[C@@H](OC(=O)Nc1c(-c2ccc(NC(=O)c3ccc(C(F)(F)F)nc3F)cn2)nnn1C)c1cc(F)cnc1F` [Compound 254, (R)-1-(2,5-difluoropyridin-3-yl)ethyl (4-(5-(2-fluoro-6-(trifluoromethyl)nicotinamido)pyridin-2-yl)-1-methyl-1H-1,2,3-triazol-5-yl)carbamate], the half-maximal effective concentration (EC50) amounted to 18.1 nM.
Regarding `CC(=O)Nc1ccc(-c2nnn(C)c2NC(=O)OC(C)c2ccc(F)nc2Cl)nc1` (stereo not drawn) [Compound 182, 1-(2-chloro-6-fluoropyridin-3-yl)ethyl (4-(5-acetamidopyridin-2-yl)-1-methyl-1H-1,2,3-triazol-5-yl)carbamate], the concentration for a half-maximal effect (EC50) was 2050 nM.
As for `C[C@@H](OC(=O)Nc1c(-c2ccc(NC(=O)c3ccc(C(C)(F)F)nc3)cn2)nnn1C)c1cc(F)cnc1F` [Compound 272, (R)-1-(2,5-difluoropyridin-3-yl)ethyl (4-(5-(6-(1,1-difluoroethyl)nicotinamido)pyridin-2-yl)-1-methyl-1H-1,2,3-triazol-5-yl)carbamate], the figure is 162 nM; as for `Cc1cc(C(=O)Nc2ccc(-c3nnn(C)c3NC(=O)O[C@H](C)c3cc(F)cnc3F)nc2)on1` [Compound 260, (R)-1-(2,5-difluoropyridin-3-yl)ethyl (1-methyl-4-(5-(3-methylisoxazole-5-carboxamido)pyridin-2-yl)-1H-1,2,3-triazol-5-yl)carbamate], 161 nM.
Regarding `C[C@@H](OC(=O)Nc1c(-c2ccc(NC(=O)[C@@H]3C[C@H]3c3ccc(F)nc3)cn2)nnn1C)c1cc(F)cnc1F` (mixture of isomers) [Compound 237, (R)-1-(2,5-difluoropyridin-3-yl)ethyl (4-(5-((1RS,2RS)-2-(6-fluoropyridin-3-yl)cyclopropane-1-carboxamido)pyridin-2-yl)-1-methyl-1H-1,2,3-triazol-5-yl)carbamate], the EC50 worked out at 19.3 nM.
As for `C[C@@H](OC(=O)Nc1c(-c2ccc(NC(=O)C3CS(=O)(=O)C3)cn2)nnn1C)c1cccnc1Cl` [Compound 43, (R)-1-(2-chloropyridin-3-yl)ethyl (4-(5-(1,1-dioxidothietane-3-carboxamido)pyridin-2-yl)-1-methyl-1H-1,2,3-triazol-5-yl)carbamate], the figure is 497 nM; as for `C[C@@H](OC(=O)Nc1c(-c2ccc(NC(=O)C34CCC(F)(CC3)CC4)cn2)nnn1C)c1cccnc1Cl` [Compound 114, (R)-1-(2-chloropyridin-3-yl)ethyl (4-(5-(4-fluorobicyclo[2.2.2]octane-1-carboxamido)pyridin-2-yl)-1-methyl-1H-1,2,3-triazol-5-yl)carbamate], 504 nM.
Turning to `Cc1ncc(F)cc1[C@@H](C)OC(=O)Nc1c(-c2ccc(NC(=O)C34CC(C#N)(C3)C4)cn2)nnn1C` [Compound 178, (R)-1-(5-fluoro-2-methylpyridin-3-yl)ethyl (4-(5-(3-cyanobicyclo[1.1.1]pentane-1-carboxamido)pyridin-2-yl)-1-methyl-1H-1,2,3-triazol-5-yl)carbamate], the concentration giving a half-maximal response (EC50) stood at 140 nM.
As for `C[C@@H](OC(=O)Nc1c(-c2ccc(NC(=O)C3(C#N)CC3)cn2)nnn1C)c1cc(F)cnc1F` [Compound 39, (R)-1-(2,5-difluoropyridin-3-yl)ethyl (4-(5-(1-cyanocyclopropane-1-carboxamido)pyridin-2-yl)-1-methyl-1H-1,2,3-triazol-5-yl)carbamate], the EC50 amounted to 50.8 nM.
Regarding `C[C@@H](OC(=O)Nc1c(-c2ccc(NC(=O)[C@@H]3CC3(F)F)cn2)nnn1C)c1cc(F)cnc1F` [Compound 164, (R)-1-(2,5-difluoropyridin-3-yl)ethyl (4-(5-((S)-2,2-difluorocyclopropane-1-carboxamido)pyridin-2-yl)-1-methyl-1H-1,2,3-triazol-5-yl)carbamate], the EC50 was 245 nM.
Take `C[C@@H](OC(=O)Nc1c(-c2ccc(NC(=O)c3cccc(C#N)n3)cn2)nnn1C)c1cccnc1Cl` [Compound 98, (R)-1-(2-chloropyridin-3-yl)ethyl (4-(5-(6-cyanopicolinamido)pyridin-2-yl)-1-methyl-1H-1,2,3-triazol-5-yl)carbamate]: the half-maximal effective concentration (EC50) was determined as 720 nM.
Consider `C[C@@H](OC(=O)Nc1c(-c2ccc(NC(=O)[C@@H]3C[C@H]3C3CC3)cn2)nnn1C)c1cc(F)cnc1F` [Compound 267, (R)-1-(2,5-difluoropyridin-3-yl)ethyl (4-(5-((1S,2R)[1,1′-bi(cyclopropane)]-2-carboxamido)pyridin-2-yl)-1-methyl-1H-1,2,3-triazol-5-yl)carbamate], for which the EC50 was 588 nM.
Take `C[C@@H](OC(=O)Nc1c(-c2ccc(NC(=O)C3CC4(C3)CC3(CCC3)C4)cn2)nnn1C)c1cccnc1Cl` [Compound 77, (R)-1-(2-chloropyridin-3-yl)ethyl (4-(5-(dispiro[3.1.36.14]decane-2-carboxamido)pyridin-2-yl)-1-methyl-1H-1,2,3-triazol-5-yl)carbamate]: the EC50 was found to be 25.5 nM.
Regarding `C[C@@H](OC(=O)Nc1c(-c2ccc(NC(=O)[C@H]3CNC(=O)C3)cn2)nnn1C)c1cccnc1Cl` [Compound 195, (R)-1-(2-chloropyridin-3-yl)ethyl (1-methyl-4-(5-((R)-5-oxopyrrolidine-3-carboxamido)pyridin-2-yl)-1H-1,2,3-triazol-5-yl)carbamate], the EC50 is 1540 nM.
Regarding `C[C@@H](OC(=O)Nc1c(-c2cc(F)c(NC(=O)C3(C#N)CC3)cn2)nnn1C)c1cccnc1Cl` [Compound 183, (R)-1-(2-chloropyridin-3-yl)ethyl (4-(5-(1-cyanocyclopropane-1-carboxamido)-4-fluoropyridin-2-yl)-1-methyl-1H-1,2,3-triazol-5-yl)carbamate], the concentration giving a half-maximal response (EC50) is 1060 nM.
In the case of `Cc1noc2cc(C(=O)Nc3ccc(-c4nnn(C)c4NC(=O)O[C@H](C)c4cc(F)cnc4F)nc3)ccc12` [Compound 279, (R)-1-(2,5-difluoropyridin-3-yl)ethyl (1-methyl-4-(5-(3-methylbenzo[d]isoxazole-6-carboxamido)pyridin-2-yl)-1H-1,2,3-triazol-5-yl)carbamate], the EC50 came out at 97.4 nM.
On to `C[C@@H](OC(=O)Nc1c(-c2ccc(NC(=O)c3ccnc(Cl)c3)cn2)nnn1C)c1cccnc1Cl` [Compound 103, (R)-1-(2-chloropyridin-3-yl)ethyl (4-(5-(2-chloroisonicotinamido)pyridin-2-yl)-1-methyl-1H-1,2,3-triazol-5-yl)carbamate], for which the 50% effective concentration (EC50) came out at 16.6 nM.
`C[C@@H](OC(=O)Nc1c(-c2ccc(NC(=O)C34CC(C5COC5)(C3)C4)cn2)nnn1C)c1cccnc1Cl` [Compound 44, (R)-1-(2-chloropyridin-3-yl)ethyl (1-methyl-4-(5-(3-(oxetan-3-yl)bicyclo[1.1.1]pentane-1-carboxamido)pyridin-2-yl)-1H-1,2,3-triazol-5-yl)carbamate]: the EC50 amounted to 165 nM.
With `C[C@@H](OC(=O)Nc1c(-c2ccc(NC(=O)c3cncc(F)c3Cl)cn2)nnn1C)c1cc(F)cnc1F` [Compound 263, (R)-1-(2,5-difluoropyridin-3-yl)ethyl (4-(5-(4-chloro-5-fluoronicotinamido)pyridin-2-yl)-1-methyl-1H-1,2,3-triazol-5-yl)carbamate] the figure was 691 nM; with `C[C@@H](OC(=O)Nc1c(-c2ccc(NC(=O)C#CC3CC3)cn2)nnn1C)c1cccnc1Cl` [Compound 75, (R)-1-(2-chloropyridin-3-yl)ethyl (4-(5-(3-cyclopropylpropiolamido)pyridin-2-yl)-1-methyl-1H-1,2,3-triazol-5-yl)carbamate], 23.4 nM; with `C[C@@H](OC(=O)Nc1c(-c2ccc(NC(=O)C3(C(F)F)CC3)cn2)nnn1C)c1cc(F)cnc1Cl` [Compound 166, (R)-1-(2-chloro-5-fluoropyridin-3-yl)ethyl (4-(5-(1-(difluoromethyl)cyclopropane-1-carboxamido)pyridin-2-yl)-1-methyl-1H-1,2,3-triazol-5-yl)carbamate], 238 nM.
`C[C@@H](OC(=O)Nc1c(-c2ccc(NC(=O)[C@@]3(C#N)C[C@@H]3F)cn2)nnn1C)c1cc(F)cnc1F` [Compound 270, (R)-1-(2,5-difluoropyridin-3-yl)ethyl (4-(5-((1S,2S)-1-cyano-2-fluorocyclopropane-1-carboxamido)pyridin-2-yl)-1-methyl-1H-1,2,3-triazol-5-yl)carbamate]: the EC50 worked out at 168 nM.
Consider `Cc1cnc(F)cc1C(C)OC(=O)Nc1c(-c2ccc(NC(=O)C3CC(F)(F)C3)cn2)nnn1C` (stereo not drawn) [Compound 26, 1-(2-fluoro-5-methylpyridin-4-yl)ethyl (4-(5-(3,3-difluorocyclobutane-1-carboxamido)pyridin-2-yl)-1-methyl-1H-1,2,3-triazol-5-yl)carbamate], for which the concentration giving a half-maximal response (EC50) is 587 nM.
